Measurements published in US20260001847A1, “HERBICIDAL QUINOLONE DERIVATIVES” (SYNGENTA CROP PROTECTION AG, priority 2022, published 2026).

How the values were obtained:
Format in all cases: in vivo
Conditions in all cases: 1000 g/ha, evaluated after 13 days
Lolium perenne (LOLPE) [1] = test: Pre-emergence Test
Solanum nigrum (SOLNI) [2] = test: Pre-emergence Test
Setaria faberi (SETFA) [3] = test: Pre-emergence Test
[4] = test system: Ipomoea hederacea (IPOHE); test: Pre-emergence Test
Solanum nigrum (SOLNI) [5] = test: Post-emergence Test
Procedure: (§1) Seeds of a variety of test species are sown in standard soil in pots (Abutilon theophrasti (ABUTH), Ipomoea hederacea (IPOHE). Setaria faberi (SETFA), Echinochloa crus-galli (ECHCG), Zea mays (ZEAMX), Amaranthus retoflexus (AMARE), Solanum nigrum (SOLNI), Lolium perenne (LOLPE), Amaranthus palmeri (AMAPA)). After 8 days cultivation under controlled conditions in a glasshouse (at 24° C./16° C., day/night-; 14 hours light; 65% humidity), the plants are sprayed with an aqueous spray solution derived from the formulation of the technical active ingredient in acetone/water (50:50) solution containing 0.5% Tween 20 (polyoxyethylene sorbitan monolaurate, CAS RN 9005-64-5). Compounds are applied at 1000 g/ha unless otherwise stated. The test plants are then grown in a glasshouse under controlled conditions in a glasshouse (at 24° C./16° C., day/night; 14 hours light; 65% humidity) and watered twice daily. After 13 days the test is evaluated for the percentage damage caused to the plant. The biological activities are shown in the following table on a five-point scale (5=81-100%; 4=61-80%; 3=41-60%; 2=21-40%; 1=0-20%; -=not tested).

Lolium perenne (LOLPE) [6] = test: Post-emergence Test
Procedure: as §1

[7] = test system: Ipomoea hederacea (IPOHE); test: Post-emergence Test
Procedure: as §1

[8] = test system: Abutilon theophrasti (ABUTH); test: Post-emergence Test
Procedure: as §1

Setaria faberi (SETFA) [9] = test: Post-emergence Test
Procedure: as §1

Zea mays (ZEAMX) [10] = test: Post-emergence Test
Procedure: as §1

[11] = test system: Amaranthus retoflexus (AMARE); test: Post-emergence Test
Procedure: as §1

[12] = test system: Echinochloa crus-galli (ECHCG); test: Post-emergence Test
Procedure: as §1

[13] = test system: Amaranthus retoflexus (AMARE); test: Pre-emergence Test
[14] = test system: Abutilon theophrasti (ABUTH); test: Pre-emergence Test
Zea mays (ZEAMX) [15] = test: Pre-emergence Test
[16] = test system: Echinochloa crus-galli (ECHCG); test: Pre-emergence Test

SMILES	percentage damage caused to the plant, LOLPE (Lolium perenne (LOLPE) [1])	percentage damage caused to the plant, SOLNI (Solanum nigrum (SOLNI) [2])	percentage damage caused to the plant, SETFA (Setaria faberi (SETFA) [3])	percentage damage caused to the plant, IPOHE [4]	percentage damage caused to the plant, SOLNI (Solanum nigrum (SOLNI) [5])	percentage damage caused to the plant, LOLPE (Lolium perenne (LOLPE) [6])	percentage damage caused to the plant, IPOHE [7]	percentage damage caused to the plant, ABUTH [8]	percentage damage caused to the plant, SETFA (Setaria faberi (SETFA) [9])	percentage damage caused to the plant, ZEAMX (Zea mays (ZEAMX) [10])	percentage damage caused to the plant, AMARE [11]	percentage damage caused to the plant, ECHCG [12]	percentage damage caused to the plant, AMARE [13]	percentage damage caused to the plant, ABUTH [14]	percentage damage caused to the plant, ZEAMX (Zea mays (ZEAMX) [15])	percentage damage caused to the plant, ECHCG [16]
CCn1c(-c2ccc(Cl)c(Cl)c2)c(C(=O)O)c(=O)c2ccccc21 [Compound 3, 2-(3,4-dichlorophenyl)-1-ethyl-4-oxo-quinoline-3-carboxylic acid]	3 (3=41-60%)	4 (4=61-80%)	5 (5=81-100%)	3 (3=41-60%)	4 (4=61-80%)	2 (2=21-40%)	4 (4=61-80%)	2 (2=21-40%)	4 (4=61-80%)	1 (1=0-20%)	3 (3=41-60%)	3 (3=41-60%)	2 (2=21-40%)	1 (1=0-20%)	3 (3=41-60%)	5 (5=81-100%)
CCn1c(-c2ccc(Cl)c(Cl)c2)c(C(=O)O)c(=O)c2ccc(OC)cc21 [Compound 1, 2-(3,4-dichlorophenyl)-1-ethyl-7-methoxy-4-oxo-quinoline-3-carboxylic acid]			2 (2=21-40%)	2 (2=21-40%)			3 (3=41-60%)		2 (2=21-40%)	0	0	1 (1=0-20%)		3 (3=41-60%)	1 (1=0-20%)	1 (1=0-20%)
CCn1c(-c2ccc(Cl)c(Cl)c2)c(C(=O)O)c(=O)c2c(C(F)(F)F)cccc21 [Compound 2, 2-(3,4-dichlorophenyl)-1-ethyl-4-oxo-5-(trifluoromethyl)quinoline-3-carboxylic acid]	0	2 (2=21-40%)	5 (5=81-100%)	2 (2=21-40%)	2 (2=21-40%)	1 (1=0-20%)	3 (3=41-60%)	3 (3=41-60%)	4 (4=61-80%)	3 (3=41-60%)	2 (2=21-40%)	5 (5=81-100%)	2 (2=21-40%)	2 (2=21-40%)	1 (1=0-20%)	5 (5=81-100%)
